≈ marks a conversion by molar mass, not a printed value. Calls of active or inactive are those of the source. The rule behind the calls is not given here.
How the values were obtained:
Type in all cases: functional
Staphylococcus aureus [1] = test: Antibacterial activity against Staphylococcus aureus at 25 ug/ml after 24 hrs by agar well diffusion method; details: read-out: DIZ
Staphylococcus aureus [2] = test: Antibacterial activity against Staphylococcus aureus at 50 ug/ml after 24 hrs by agar well diffusion method; details: read-out: DIZ
Staphylococcus aureus [3] = test: Antibacterial activity against Staphylococcus aureus at 75 ug/ml after 24 hrs by agar well diffusion method; details: read-out: DIZ
Staphylococcus aureus [4] = test: Antibacterial activity against Staphylococcus aureus at 100 ug/ml after 24 hrs by agar well diffusion method; details: read-out: DIZ
Bacillus subtilis [5] = test: Antibacterial activity against Bacillus subtilis at 25 ug/ml after 24 hrs by agar well diffusion method; details: read-out: DIZ
Bacillus subtilis [6] = test: Antibacterial activity against Bacillus subtilis at 50 ug/ml after 24 hrs by agar well diffusion method; details: read-out: DIZ
Bacillus subtilis [7] = test: Antibacterial activity against Bacillus subtilis at 75 ug/ml after 24 hrs by agar well diffusion method; details: read-out: DIZ
Bacillus subtilis [8] = test: Antibacterial activity against Bacillus subtilis at 100 ug/ml after 24 hrs by agar well diffusion method; details: read-out: DIZ
Escherichia coli [9] = test: Antibacterial activity against Escherichia coli at 25 ug/ml after 24 hrs by agar well diffusion method; details: read-out: DIZ
Escherichia coli [10] = test: Antibacterial activity against Escherichia coli at 50 ug/ml after 24 hrs by agar well diffusion method; details: read-out: DIZ
Escherichia coli [11] = test: Antibacterial activity against Escherichia coli at 75 ug/ml after 24 hrs by agar well diffusion method; details: read-out: DIZ
Escherichia coli [12] = test: Antibacterial activity against Escherichia coli at 100 ug/ml after 24 hrs by agar well diffusion method; details: read-out: DIZ
Klebsiella pneumoniae [13] = test: Antibacterial activity against Klebsiella pneumoniae at 25 ug/ml after 24 hrs by agar well diffusion method; details: read-out: DIZ
Klebsiella pneumoniae [14] = test: Antibacterial activity against Klebsiella pneumoniae at 50 ug/ml after 24 hrs by agar well diffusion method; details: read-out: DIZ
Klebsiella pneumoniae [15] = test: Antibacterial activity against Klebsiella pneumoniae at 75 ug/ml after 24 hrs by agar well diffusion method; details: read-out: DIZ
Klebsiella pneumoniae [16] = test: Antibacterial activity against Klebsiella pneumoniae at 100 ug/ml after 24 hrs by agar well diffusion method; details: read-out: DIZ
Staphylococcus aureus [17] = test: Antibacterial activity against methicillin resistant Staphylococcus aureus MRSA090 at 25 ug/ml after 24 hrs by agar well diffusion method; details: MRSA090, 24 h, read-out: DIZ
Staphylococcus aureus [18] = test: Antibacterial activity against methicillin resistant Staphylococcus aureus MRSA090 at 50 ug/ml after 24 hrs by agar well diffusion method; details: MRSA090, 24 h, read-out: DIZ
Staphylococcus aureus [19] = test: Antibacterial activity against methicillin resistant Staphylococcus aureus MRSA090 at 75 ug/ml after 24 hrs by agar well diffusion method; details: MRSA090, 24 h, read-out: DIZ
Staphylococcus aureus [20] = test: Antibacterial activity against methicillin resistant Staphylococcus aureus MRSA090 at 100 ug/ml after 24 hrs by agar well diffusion method; details: MRSA090, 24 h, read-out: DIZ
Aspergillus niger [21] = test: Antifungal activity against Aspergillus niger at 25 ug/ml after 48 hrs by agar well diffusion method; details: read-out: DIZ
Aspergillus niger [22] = test: Antifungal activity against Aspergillus niger at 50 ug/ml after 48 hrs by agar well diffusion method; details: read-out: DIZ
Aspergillus niger [23] = test: Antifungal activity against Aspergillus niger at 75 ug/ml after 48 hrs by agar well diffusion method; details: read-out: DIZ
Aspergillus niger [24] = test: Antifungal activity against Aspergillus niger at 100 ug/ml after 48 hrs by agar well diffusion method; details: read-out: DIZ
Fusarium verticillioides [25] = test: Antifungal activity against Fusarium moniliforme at 25 ug/ml after 48 hrs by agar well diffusion method
Fusarium verticillioides [26] = test: Antifungal activity against Fusarium moniliforme at 50 ug/ml after 48 hrs by agar well diffusion method
Fusarium verticillioides [27] = test: Antifungal activity against Fusarium moniliforme at 75 ug/ml after 48 hrs by agar well diffusion method; details: read-out: DIZ
Fusarium verticillioides [28] = test: Antifungal activity against Fusarium moniliforme at 100 ug/ml after 48 hrs by agar well diffusion method; details: read-out: DIZ
Fusarium oxysporum [29] = test: Antifungal activity against Fusarium oxysporum at 25 ug/ml after 48 hrs by agar well diffusion method
Fusarium oxysporum [30] = test: Antifungal activity against Fusarium oxysporum at 50 ug/ml after 48 hrs by agar well diffusion method
Fusarium oxysporum [31] = test: Antifungal activity against Fusarium oxysporum at 75 ug/ml after 48 hrs by agar well diffusion method
Fusarium oxysporum [32] = test: Antifungal activity against Fusarium oxysporum at 100 ug/ml after 48 hrs by agar well diffusion method; details: read-out: DIZ
Aspergillus niger [33] = test: Antifungal activity against Aspergillus niger after 48 to 72 hrs by microdilution method
Fusarium verticillioides [34] = test: Antifungal activity against Fusarium moniliforme after 48 to 72 hrs by microdilution method
Fusarium oxysporum [35] = test: Antifungal activity against Fusarium oxysporum after 48 to 72 hrs by microdilution method
Klebsiella pneumoniae [36] = test: Antibacterial activity against Klebsiella pneumoniae incubated for overnight by microdilution method
Staphylococcus aureus [37] = test: Antibacterial activity against Staphylococcus aureus incubated for overnight by microdilution method
Bacillus subtilis [38] = test: Antibacterial activity against Bacillus subtilis incubated for overnight by microdilution method
Escherichia coli [39] = test: Antibacterial activity against Escherichia coli incubated for overnight by microdilution method
Staphylococcus aureus [40] = test: Antibacterial activity against methicillin resistant Staphylococcus aureus MRSA090 incubated for overnight by microdilution method

Cc1cccc2nc(N/N=C/c3ccc([N+](=O)[O-])cc3[N+](=O)[O-])sc12
zone of inhibition at 25 µg/mL (Staphylococcus aureus [1]): 6 mm | zone of inhibition at 50 µg/mL (Staphylococcus aureus [2]): 9 mm | zone of inhibition at 75 µg/mL (Staphylococcus aureus [3]): 13 mm | zone of inhibition at 100 µg/mL (Staphylococcus aureus [4]): 19 mm | zone of inhibition at 25 µg/mL (Bacillus subtilis [5]): 3 mm | zone of inhibition at 50 µg/mL (Bacillus subtilis [6]): 7 mm | zone of inhibition at 75 µg/mL (Bacillus subtilis [7]): 12 mm | zone of inhibition at 100 µg/mL (Bacillus subtilis [8]): 16 mm | zone of inhibition at 25 µg/mL (Escherichia coli [9]): 8 mm | zone of inhibition at 50 µg/mL (Escherichia coli [10]): 13 mm | zone of inhibition at 75 µg/mL (Escherichia coli [11]): 15 mm | zone of inhibition at 100 µg/mL (Escherichia coli [12]): 18 mm | zone of inhibition at 25 µg/mL (Klebsiella pneumoniae [13]): 5 mm | zone of inhibition at 50 µg/mL (Klebsiella pneumoniae [14]): 19 mm | zone of inhibition at 75 µg/mL (Klebsiella pneumoniae [15]): 14 mm | zone of inhibition at 100 µg/mL (Klebsiella pneumoniae [16]): 19 mm | zone of inhibition at 25 µg/mL (Staphylococcus aureus [17]): 8 mm | zone of inhibition at 50 µg/mL (Staphylococcus aureus [18]): 13 mm | zone of inhibition at 75 µg/mL (Staphylococcus aureus [19]): 16 mm | zone of inhibition at 100 µg/mL (Staphylococcus aureus [20]): 18 mm | zone of inhibition at 25 µg/mL (Aspergillus niger [21]): 21 mm | zone of inhibition at 50 µg/mL (Aspergillus niger [22]): 24 mm | zone of inhibition at 75 µg/mL (Aspergillus niger [23]): 29 mm | zone of inhibition at 100 µg/mL (Aspergillus niger [24]): 32 mm | zone of inhibition at 25 µg/mL (Fusarium verticillioides [25]; read-out: DIZ): 20 mm | zone of inhibition at 50 µg/mL (Fusarium verticillioides [26]; read-out: DIZ): 24 mm | zone of inhibition at 75 µg/mL (Fusarium verticillioides [27]): 30 mm | zone of inhibition at 100 µg/mL (Fusarium verticillioides [28]): 36 mm | zone of inhibition at 25 µg/mL (Fusarium oxysporum [29]; read-out: DIZ): 13 mm | zone of inhibition at 50 µg/mL (Fusarium oxysporum [30]; read-out: DIZ): 19 mm | zone of inhibition at 75 µg/mL (Fusarium oxysporum [31]; read-out: DIZ): 25 mm | zone of inhibition at 100 µg/mL (Fusarium oxysporum [32]): 28 mm | MIC (Aspergillus niger [33]): 25 µg/mL (≈ 70 µM) | MIC (Fusarium verticillioides [34]): 25 µg/mL (≈ 70 µM) | MIC (Fusarium oxysporum [35]): 22 µg/mL (≈ 61.6 µM)

Cc1cccc2nc(N/N=C/c3ccc(O)cc3O)sc12
zone of inhibition at 25 µg/mL (Staphylococcus aureus [1]): 14 mm | zone of inhibition at 50 µg/mL (Staphylococcus aureus [2]): 18 mm | zone of inhibition at 75 µg/mL (Staphylococcus aureus [3]): 23 mm | zone of inhibition at 100 µg/mL (Staphylococcus aureus [4]): 26 mm | zone of inhibition at 25 µg/mL (Bacillus subtilis [5]): 12 mm | zone of inhibition at 50 µg/mL (Bacillus subtilis [6]): 18 mm | zone of inhibition at 75 µg/mL (Bacillus subtilis [7]): 24 mm | zone of inhibition at 100 µg/mL (Bacillus subtilis [8]): 28 mm | zone of inhibition at 25 µg/mL (Escherichia coli [9]): 6 mm | zone of inhibition at 50 µg/mL (Escherichia coli [10]): 12 mm | zone of inhibition at 75 µg/mL (Escherichia coli [11]): 17 mm | zone of inhibition at 100 µg/mL (Escherichia coli [12]): 20 mm | zone of inhibition at 25 µg/mL (Klebsiella pneumoniae [13]): 12 mm | zone of inhibition at 50 µg/mL (Klebsiella pneumoniae [14]): 16 mm | zone of inhibition at 75 µg/mL (Klebsiella pneumoniae [15]): 21 mm | zone of inhibition at 100 µg/mL (Klebsiella pneumoniae [16]): 25 mm | zone of inhibition at 25 µg/mL (Staphylococcus aureus [17]): 12 mm | zone of inhibition at 50 µg/mL (Staphylococcus aureus [18]): 16 mm | zone of inhibition at 75 µg/mL (Staphylococcus aureus [19]): 20 mm | zone of inhibition at 100 µg/mL (Staphylococcus aureus [20]): 24 mm | zone of inhibition at 25 µg/mL (Aspergillus niger [21]): 8 mm | zone of inhibition at 50 µg/mL (Aspergillus niger [22]): 14 mm | zone of inhibition at 75 µg/mL (Aspergillus niger [23]): 17 mm | zone of inhibition at 100 µg/mL (Aspergillus niger [24]): 21 mm | diameter of the inhibition zone (DIZ) (Fusarium verticillioides [25]): inactive | diameter of the inhibition zone (DIZ) (Fusarium verticillioides [26]): inactive | zone of inhibition at 75 µg/mL (Fusarium verticillioides [27]): 10 mm | zone of inhibition at 100 µg/mL (Fusarium verticillioides [28]): 14 mm | diameter of the inhibition zone (DIZ) (Fusarium oxysporum [29]): inactive | diameter of the inhibition zone (DIZ) (Fusarium oxysporum [30]): inactive | diameter of the inhibition zone (DIZ) (Fusarium oxysporum [31]): inactive | zone of inhibition at 100 µg/mL (Fusarium oxysporum [32]): 8 mm | MIC (Klebsiella pneumoniae [36]): 24 µg/mL (≈ 80.2 µM) | MIC (Staphylococcus aureus [37]): 24 µg/mL (≈ 80.2 µM) | MIC (Bacillus subtilis [38]): 29 µg/mL (≈ 96.9 µM) | MIC (Escherichia coli [39]): 33 µg/mL (≈ 110 µM) | MIC (Staphylococcus aureus [40]): 20 µg/mL (≈ 66.8 µM) | MIC (Fusarium verticillioides [34]): 25 µg/mL (≈ 83.5 µM) | MIC (Fusarium oxysporum [35]): 27 µg/mL (≈ 90.2 µM)
